Assay [1] has as its system S. aureus. Kind of assay: Disk diffusion antibacterial test. Format: cell-based, Staphylococcus aureus. Conditions: there called agar dilution method. The procedure: (§1) Antibacterial effects of spiro[indeno[2,1-c]pyridazine-9,4′-pyran]-3′,4-dicarbonitrile derivatives 5a–j were evaluated in vitro by using disk diffusion method against Gram-positive (S. aureus) and Gram negative (E. coli). The diameter of inhibition zone correlates to the sensitivity of a bacterium to an antibacterial agent. […] E. coli was resistant against all compounds tested (Table 2). Tetracycline and DMSO were used as positive control and negative control respectively. Next, the active compounds were analysed using MIC assay to determine the lowest concentration for inhibition. […] It seems due to the difference in structure of bacterial cell wall (i.e., the presence of outer membrane with lipid, lipopolysaccharide, and lipoprotein content in Gram negative bacteria), E. coli was resistant against the related synthetic compounds.
(§2) Antibacterial activity of the prepared synthetic compounds against the Gram-negative bacteria (E. coli; ATCC: 15922) and the Gram-positive bacteria (S. aureus; PTCC: 1112, International no. ATCC6538P) were examined by disk diffusion assay. Bacterial cultures were obtained from Persian Type Culture Collection, Tehran, Iran (PTCC). Isolated pure colonies from fresh grown bacteria were transferred from the plates into sterile normal saline solution and it was vortexed to form bacterial homogenous suspensions. The turbidity was then adjusted to 0.5 McFarland standard units, and the suspensions were poured over Mueller–Hinton agar (MHA) plates. Sterile filter paper disks were placed over these plates. The sterile disks were impregnated with the tested compounds. Positive control (tetracycline) and negative control ([…]) were used. To determine MIC, the concentrations of tested substance were prepared within the range from 30–5 mM. Incubate in incubator at 37 °C in 24 h for bacteria (Table 2).
On the technique in general: Agar diffusion results depend on both activity and mobility in agar.

The next assay relates to Bcl-2. Nature of the assay: Real-time RT-PCR, Bcl-2 mRNA expression. Format: cell-based, human. The note with it: A549 cells, 40 μM, 48 h. The text has this: (§3) Finally, we confirmed that apoptosis mediated by mitochondria induces in A549 cells. It is well known that the anti-apoptotic Bcl-2 protein is localized on the outer mitochondrial membranes and antagonizes the action of pro-apoptotic Bax. The balance between these two proteins prevents translocation of cytochrome c from the mitochondria to cytoplasm and determines the apoptosis resistance. Down-regulation of Bcl-2 and/or up-regulation of Bax disturb this balance and leads to apoptosis (Fig. 3A).
(§4) For quantitative real-time RT-PCR analysis, after 48 h of treatment with 40 μM of related drug (5a), A549 cells was lysed and the total RNA was extracted using 500 μL of Trizol® reagent according to the protocol provided by the manufacturer (Invitrogen Life Technologies, Carlsbad, CA, USA) followed by reverse transcription into cDNA according to manufactures protocol (ReveretAid M-Mulv reverse transcriptase kit, Thermo Fisher Scientific, MA, USA). Real-time RT-PCR was then performed to amplify cDNA using SYBR green dye universal master mix (Bioron GmbH, Germany), on a Light Cycler 480 (Roche) using the primers for GAPDH-F: 5′-CAA GGT CAT CCA TGA CAA CTTTG-3′, R:5′-[…]-3′; Bax-F:5′-[…]-3′, R: 5′-[…]-3′and Bcl-2-F: 5′-[…]-3′, R: 5′- […]-3′for forty cycles. Data represent averaged copy number normalized to the GAPDH housekeeping gene. Primer synthesis was done by Pishgam Biotech Co. Tehran, Iran. […]

Another assay has as its system Bax. Nature of the assay: Real-time RT-PCR, Bax mRNA expression. Format: cell-based, human. The note with it: A549 cells, 40 μM, 48 h.
From the text: as §3, §4
In general terms: In qPCR the cycle at which signal appears reflects the starting amount.

Assay [2] deals with A549 cells. Kind of assay: DAPI staining assay. Conditions: 24 h treatment. Format: cell-based, human. The procedure:
(§5) At first, in order to compare anti-cancer properties, the synthesized compounds 5a–j were evaluated against A549 cells, MCF-7 cells, A375 cells, PC3 cells, LNCaP cells and HDF cells lines using the MTT colorimetric assay. The activity is expressed as 50% growth inhibitory concentration (IC50) values at 48 h. We used DMSO (1%) as negative control and Etoposide as positive control.
DAPI staining assay was used to determine chromatin changes. A549 cells were seeded in six well plates (5 × 10^4 cells per well) containing 12 mm cover-slips and subsequently treated for compound 5a (sample or treated cells) and DMSO (control or untreated cells) for 24 h. Cells then were fixed with 3.7% paraformaldehyde, permeabilized in 0.5% (w/v) Triton X-100, 1% BSA (w/v) for 5 min, washed in PBS, and stained with DAPI (Sigma-Aldrich, USA). All images were taken by an inverted fluorescent microscope (Nikon Eclipse Ti-E).

The next assay has as its system E. coli. Kind of assay: Disk diffusion antibacterial test. Conditions: disc diffusion test, concentration 50 mM. Also on record: key: —: inactive at concentration 50 mM. Format: cell-based, Escherichia coli. The procedure: as §1, §2
Assay [3] concerns S. aureus. Nature of the assay: MIC determination. Format: cell-based. The note with it: Staphylococcus aureus; read-out: MICs (mM) S. aureus. The procedure: as §1, §2
Another assay has as its system HDF cells. Kind of assay: MTT cytotoxicity assay. It counts as cell-based. The note with it: 48 h, normal cells (human dermal fibroblast). The protocol:
as §5
(§6) Human non-small-cell lung cancer A549 cells, human breast cancer MCF-7 cells, human malignant melanoma cells (A375), human prostate cancer cells (PC3 cells, LNCaP cells) and normal cells HDF (human dermal fibroblast) were received from Pasture Institute, Tehran, Iran. MCF-7 cells were grown in RPMI 1640 medium, A549 cells, A375 cells, PC3 cells, LNCaP cells and HDF cells were grown in DMEM medium. All media contain 10% fetal bovine serum (FBS), penicillin G, streptomycin 100 μg mL^−1 and 1% L-glutamine. The cells were cultured and incubated under humidified 5% CO2 atmosphere at 37 °C.
(§7) The effect of compounds treatment on the viability of cancer cell lines was measured by (3-(4,5-dimethylthiazol-2-yl)-2,5-diphenyl tetrazolium bromide or MTT) assay (MTT assay kit, Bio IDEA, CatNo: BI1017, Iran) based on the ability of live cells to cleave the tetrazolium ring to a molecule that absorb at […] as per the manufacturer's instructions.[33] Etoposide (was kindly provided by Dr A. Foroumadi, Tehran medical Science University, Iran) and dimethyl sulfoxide (or DMSO) was used as positive and negative controls, respectively.[34] Briefly, cells were plated in 96-well culture plates (5 × 10^3 cells per well). After 24 h incubation, the cells were treated with different concentrations of the compounds. After 48 h at 37 °C, the medium was removed and 100 μL of MTT reagent (1 mg mL^−1) was added to each well, and cells were further incubated at 37 °C for 4 h. The MTT solution was removed, 50 μL of DMSO was added to each well to dissolve formazan crystals, and the plates were gently shaken for 10 minutes, followed by reading with an ELISA plate reader (BiotekELx 800, USA). The 50% inhibition concentration (IC50) was defined as the concentration that inhibited cell proliferation by 50% when compared to DMSO treated cells (as negative control).

A further assay relates to LNCaP cells. Kind of assay: MTT cytotoxicity assay. It counts as cell-based. Conditions: Homo sapiens, 48 h. The protocol:
as §5, §6, §7
(Tetrazolium dyes change colour on reduction, which living cells bring about.)

Assay [4] concerns A549 cells. Kind of assay: MTT cytotoxicity assay. It counts as cell-based. The note with it: Homo sapiens, 48 h. The procedure: as §5, §6, §7
For a further assay, the system named is PC3 cells. Kind of assay: MTT cytotoxicity assay. It counts as cell-based. The note with it: Homo sapiens, PC-3, 48 h. The protocol: as §5, §6, §7
The next assay concerns A375 cells. Nature of the assay: MTT cytotoxicity assay. Conditions: Homo sapiens, A-375, 48 h. Format: cell-based. The protocol:
as §5, §6, §7

A further assay has as its system MCF-7 cells. Kind of assay: MTT cytotoxicity assay. It counts as cell-based. Conditions: Homo sapiens, MCF7, 48 h. The protocol:
as §5, §6, §7

The results in this text go back to article PMC9070039, “Synthesis and evaluation of antimicrobial activity, cytotoxic and pro-apoptotic effects of novel spiro-4H-pyran derivatives” (RSC Advances, 2019).

Values after ≈ are worked out from the molar mass of the structure shown.

As a reminder, the IC50 is the point on the concentration scale where inhibition reaches its midpoint. Regarding `Cn1c2c(c(=O)n(C)c1=O)C1(C(C#N)=C(N)O2)c2ccccc2-c2c1n[nH]c(=O)c2C#N` (stereo not drawn) [5a, 7′-Amino-1′,3′-dimethyl-2′,3,4′-trioxo-1′,2,2′,3,3′,4′-hexahydrospiro[indeno[2,1-c]pyridazine-9,5′-pyrano[2,3-d]pyrimidine]-4,6′-dicarbonitrile], the “Sensitivity of S. aureus to compound” value with S. aureus [1] is on record as “sensitive”. Also, in the assay with Bcl-2, the “Relative expression of Bcl-2 mRNA” value was “down-regulation expression”. The “Relative expression of Bax mRNA” value in the assay with Bax was “up-regulated expression”. The “Chromatin changes / cell death by DAPI staining” value with A549 cells [2] is on record as “induced cell death in A549 cells”. Further, the “Inhibition zone (mm) E. coli” value in the assay on E. coli is listed as “—”. In addition, the MIC in the assay on S. aureus [3] came out at 5 mM (≈ 2140 µg/mL). The IC50 with HDF cells was greater than 100 µM; in the assay on LNCaP cells, 32.15 ± 0.046 µM; with A549 cells [4], 40 ± 0.007 µM; in the assay with PC3 cells, greater than 100 µM; with A375 cells, 70.72 ± 0.064 µM; in the assay with MCF-7 cells, greater than 100 µM.
